Assays:
[1] = test system: human endothelial cells (HUVEC cells); assay: In-vitro inhibition of the interleukin-2 (Proleukin) induced VLS: spherical deformation of HUVEC cells; type: cell-based; conditions: Proleukin in combination with 20 mM of substance, microscopic assessment after 4 to 6 days
Protocol: In-vitro examinations on the inhibition of the VLS induced by interleukin-2. Using human endothelial cells (HUVEC cells) the inhibition of the IL-2 induced VLS through ectoine and hydroxyectoine was investigated in an in-vitro system. In this context the concentrations of Proleukin® (by Chiron) were determined that lead to the spherical deformation of the HUVEC cells. The spherical deformation of HUVEC cells is considered as a sign for the triggering of the VLS, cf. Baluna et al., PNAS 3957-3962, March 1999. Same as VLS, this phenotype visible under the light microscope is based on the bonding of membrane proteins, the integrins. The cells were incubated with Proleukin solely or in combination with ectoine and hydroxyectoine. To verify the specificity of the compatible solutes also trehalose and glucose were employed additionally. After 4 to 6 days the proportion of normal and spherically deformed cells of a visual field are determined by microscopic assessment.

[2] = test system: NK cells and T cells of healthy-blood donors; assay: Proleukin-induced interferon-γ synthesis of human lymphocytes (ELISA of supernatant); type: cell-based; conditions: 250 U Proleukin in combination with 20 mM hydroxyectoine, 48 hours, FIG. 2
Description: Effects of hydroxyectoine on the Proleukin-induced interferon-γ-synthesis of human lymphocytes.
interleukin-2, IL-2, same as Proleukin leads to the activation of immune effector cells which can be determined, inter alia, by an increased interferon-γ secretion of NK cells and T-lymphocytes.
For this purpose NK cells and T cells of healthy-blood donors were isolated by means of the MACS technique (Magnetic Cell Sorting, Milteniy). The of detection of the cells expressing the surface markers CE 56, NKG2D and CD 3 was brought about by FACS analyses.
The cells without further additives have been incubated for 48 hours with 250 U Proleukin or with 250 U Proleukin in combination with 20 mM hydroxyectoine. Following this, the concentration of interferon-γ was determined in the supernatant of the cells with the aid of ELISA (triple determinations from two independent experiments).

Compound: CC1=N[C@H](C(=O)O)[C@@H](O)CN1 [hydroxyectoine, (4S,5S)-5-hydroxy-2-methyl-1,4,5,6-tetrahydropyrimidine-4-carboxylic acid]
- reduction of the Proleukin-induced VLS phenotype (spherically deformed HUVEC cells; VLS inhibition percentage, FIG. 1) [1]: significantly reduce the VLS phenotype
- inhibition of the induction of interferon-γ synthesis (concentration of interferon-γ in the supernatant) [2]: does not inhibit the induction of the interferon-γ synthesis, on the contrary slightly increased values were found

Compound: CC1=N[C@H](C(=O)O)CCN1 [ectoine, (4S)-2-methyl-1,4,5,6-tetrahydropyrimidine-4-carboxylic acid]
- reduction of the Proleukin-induced VLS phenotype (spherically deformed HUVEC cells; VLS inhibition percentage, FIG. 1) [1]: significantly reduce the VLS phenotype
